Experimental findings from PMC12305662, “Fragment-Based Development of Small Molecule Inhibitors Targeting Mycobacterium tuberculosis Cholesterol Metabolism” (Journal of Medicinal Chemistry, 2025) are described below.

One series has as its target CYP121 (Mycobacterium tuberculosis, UniProt P9WPP7). The settings on record: fragment 1 mM, P450 4-6 µM; relative to DMSO (417 nm).
For another series, the target named is CYP144 (Mycobacterium tuberculosis, UniProt P9WPL1). To be noted: fragment 1 mM, P450 4-6 µM; relative to DMSO (421 nm).
Chain of CYP144 (P9WPL1 whole entry, the tested form may be a part): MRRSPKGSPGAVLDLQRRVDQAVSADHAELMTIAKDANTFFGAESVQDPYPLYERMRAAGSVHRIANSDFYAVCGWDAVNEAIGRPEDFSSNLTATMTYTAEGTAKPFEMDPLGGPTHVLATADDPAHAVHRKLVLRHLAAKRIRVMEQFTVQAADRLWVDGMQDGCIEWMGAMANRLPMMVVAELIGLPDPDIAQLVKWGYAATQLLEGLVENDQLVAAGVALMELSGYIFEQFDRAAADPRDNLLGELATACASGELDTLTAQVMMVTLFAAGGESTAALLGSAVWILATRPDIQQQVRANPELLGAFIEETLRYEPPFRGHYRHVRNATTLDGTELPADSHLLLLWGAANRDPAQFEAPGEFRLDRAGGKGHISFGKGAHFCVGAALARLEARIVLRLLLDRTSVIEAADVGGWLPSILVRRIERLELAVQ
For a further series, the target named is CYP142 (Mycobacterium tuberculosis, UniProt P9WPL5). To be noted: fragment 1 mM, P450 4-6 µM; relative to DMSO (418.5 nm).
Chain of CYP142 (P9WPL5 whole entry, the tested form may be a part): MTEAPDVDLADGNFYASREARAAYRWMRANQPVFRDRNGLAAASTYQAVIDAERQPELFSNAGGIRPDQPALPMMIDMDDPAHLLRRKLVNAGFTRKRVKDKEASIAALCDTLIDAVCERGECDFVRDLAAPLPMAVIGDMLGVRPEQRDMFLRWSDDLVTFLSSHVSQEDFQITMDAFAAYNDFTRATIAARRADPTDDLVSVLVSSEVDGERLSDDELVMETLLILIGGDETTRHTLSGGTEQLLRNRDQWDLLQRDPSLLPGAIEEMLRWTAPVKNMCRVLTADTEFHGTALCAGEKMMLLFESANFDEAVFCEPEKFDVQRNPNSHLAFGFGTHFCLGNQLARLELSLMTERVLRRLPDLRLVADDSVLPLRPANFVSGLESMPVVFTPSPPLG
For a further series, the target named is CYP126 (Mycobacterium tuberculosis, UniProt P9WPN9). To be noted: fragment 1 mM, P450 4-6 µM; relative to DMSO (418 nm).
Chain of CYP126 (P9WPN9 whole entry, the tested form may be a part): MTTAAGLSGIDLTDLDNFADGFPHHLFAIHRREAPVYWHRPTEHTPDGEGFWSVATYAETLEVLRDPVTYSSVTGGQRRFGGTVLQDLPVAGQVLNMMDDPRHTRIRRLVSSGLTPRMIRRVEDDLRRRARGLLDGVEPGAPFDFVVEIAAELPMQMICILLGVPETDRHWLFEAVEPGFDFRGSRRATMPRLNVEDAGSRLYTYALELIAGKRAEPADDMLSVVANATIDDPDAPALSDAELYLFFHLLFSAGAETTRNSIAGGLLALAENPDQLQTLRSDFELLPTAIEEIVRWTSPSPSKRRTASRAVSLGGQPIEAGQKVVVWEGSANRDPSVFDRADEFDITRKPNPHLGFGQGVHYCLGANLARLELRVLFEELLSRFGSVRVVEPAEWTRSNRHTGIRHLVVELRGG
In a further series the target is CYP124 (Mycobacterium tuberculosis, UniProt P9WPP3). To be noted: fragment 1 mM, P450 4-6 µM; relative to DMSO (419 nm).
Chain of CYP124 (P9WPP3 whole entry, the tested form may be a part): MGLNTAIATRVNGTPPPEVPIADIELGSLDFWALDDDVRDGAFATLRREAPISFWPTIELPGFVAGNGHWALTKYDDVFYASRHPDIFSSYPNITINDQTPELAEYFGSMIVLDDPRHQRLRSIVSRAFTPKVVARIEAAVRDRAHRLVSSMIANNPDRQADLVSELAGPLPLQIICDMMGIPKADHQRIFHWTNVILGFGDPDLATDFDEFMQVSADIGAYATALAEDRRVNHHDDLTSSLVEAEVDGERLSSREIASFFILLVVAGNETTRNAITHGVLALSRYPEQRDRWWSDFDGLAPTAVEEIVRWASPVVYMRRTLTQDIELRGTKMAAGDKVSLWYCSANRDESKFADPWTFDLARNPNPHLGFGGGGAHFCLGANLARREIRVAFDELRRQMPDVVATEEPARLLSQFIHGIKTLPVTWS
The next series addresses CYP143 (Mycobacterium tuberculosis, UniProt P9WPL3). The settings on record: fragment 1 mM, P450 4-6 µM; relative to DMSO (416 nm).
In another series the target is CYP125 (Mycobacterium tuberculosis, UniProt P9WPP1). Format: binding. The settings on record: fragment 1 mM, P450 4-6 µM; Soret shift relative to DMSO (393 nm).
Chain of CYP125 (P9WPP1 whole entry, the tested form may be a part): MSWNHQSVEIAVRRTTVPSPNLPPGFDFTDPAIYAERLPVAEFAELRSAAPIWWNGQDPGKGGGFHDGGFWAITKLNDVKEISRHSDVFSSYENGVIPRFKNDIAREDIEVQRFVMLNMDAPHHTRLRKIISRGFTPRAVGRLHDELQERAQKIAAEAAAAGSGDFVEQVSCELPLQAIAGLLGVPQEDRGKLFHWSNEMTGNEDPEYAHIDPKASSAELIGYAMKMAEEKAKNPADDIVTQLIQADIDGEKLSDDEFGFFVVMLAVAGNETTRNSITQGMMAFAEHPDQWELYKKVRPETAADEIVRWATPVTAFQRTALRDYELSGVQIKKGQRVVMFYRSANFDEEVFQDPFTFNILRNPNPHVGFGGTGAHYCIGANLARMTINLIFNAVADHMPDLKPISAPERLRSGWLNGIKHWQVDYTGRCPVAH

Molecules are shown by their SMILES.

Chain of CYP143 (P9WPL3 whole entry, the tested form may be a part): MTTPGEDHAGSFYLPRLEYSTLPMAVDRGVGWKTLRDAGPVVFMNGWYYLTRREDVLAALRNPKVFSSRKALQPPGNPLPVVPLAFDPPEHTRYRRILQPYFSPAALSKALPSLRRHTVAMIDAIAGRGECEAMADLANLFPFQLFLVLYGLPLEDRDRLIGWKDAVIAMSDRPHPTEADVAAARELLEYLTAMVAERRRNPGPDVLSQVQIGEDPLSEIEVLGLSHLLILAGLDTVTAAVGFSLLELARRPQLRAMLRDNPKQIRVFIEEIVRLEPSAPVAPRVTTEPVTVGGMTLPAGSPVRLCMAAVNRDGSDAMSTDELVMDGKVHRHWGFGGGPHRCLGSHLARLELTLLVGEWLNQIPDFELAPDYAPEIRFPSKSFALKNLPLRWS
Chain of CYP121 (P9WPP7 whole entry, the tested form may be a part): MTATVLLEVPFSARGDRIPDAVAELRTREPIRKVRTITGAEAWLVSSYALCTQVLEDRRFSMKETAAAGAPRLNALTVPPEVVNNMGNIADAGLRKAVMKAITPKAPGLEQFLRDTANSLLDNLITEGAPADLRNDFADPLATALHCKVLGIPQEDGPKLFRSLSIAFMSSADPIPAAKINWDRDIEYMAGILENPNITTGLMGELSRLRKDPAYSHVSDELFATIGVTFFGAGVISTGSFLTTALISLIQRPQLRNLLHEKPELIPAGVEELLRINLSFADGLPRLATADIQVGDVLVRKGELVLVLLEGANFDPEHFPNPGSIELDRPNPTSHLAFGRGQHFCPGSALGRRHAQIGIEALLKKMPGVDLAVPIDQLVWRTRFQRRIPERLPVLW

In the case of `c1ccc(-c2c[nH]cn2)cc1` [compound 68], at CYP121, the “Δλmax (nm) CYP121, fragment screen” value was 0 nm. The “Δλmax (nm) CYP144, fragment screen” value at CYP144 is 0 nm. For the same compound, the “Δλmax (nm) CYP142, fragment screen” value on CYP142 came to 3 nm. The “Δλmax (nm) CYP126, fragment screen” value on CYP126 is 1 nm. The “Δλmax (nm) CYP124, fragment screen” value on CYP124 is on record as 4 nm. Also, the “Δλmax (nm) CYP143, fragment screen” value on CYP143 is on record as 2 nm. The “Δλmax (nm) CYP125, fragment screen” value at CYP125 turned out to be 0 nm.
With `N#Cc1cccc(-n2ccnc2)c1` [compound 71], the “Δλmax (nm) CYP121, fragment screen” value at CYP121 stood at 0 nm. For the same compound, the “Δλmax (nm) CYP144, fragment screen” value at CYP144 is 0 nm. Besides, the “Δλmax (nm) CYP142, fragment screen” value on CYP142 was 3 nm. Besides, the “Δλmax (nm) CYP126, fragment screen” value at CYP126 amounted to 0 nm. Also, the “Δλmax (nm) CYP124, fragment screen” value at CYP124 was determined as 1 nm. For the same compound, the “Δλmax (nm) CYP143, fragment screen” value at CYP143 was 2.5 nm. The “Δλmax (nm) CYP125, fragment screen” value at CYP125 worked out at 0 nm.
As to `c1ccc2c(c1)CCNC2` [compound 39], on CYP121, the “Δλmax (nm) CYP121, fragment screen” value is listed as 0 nm. Besides, the “Δλmax (nm) CYP144, fragment screen” value at CYP144 was 0 nm. Moreover, the “Δλmax (nm) CYP142, fragment screen” value on CYP142 stood at 1.5 nm. In addition, the “Δλmax (nm) CYP126, fragment screen” value at CYP126 is on record as 0 nm. Moreover, the “Δλmax (nm) CYP124, fragment screen” value at CYP124 is listed as 2 nm. Moreover, the “Δλmax (nm) CYP143, fragment screen” value on CYP143 was 1 nm. Also, the “Δλmax (nm) CYP125, fragment screen” value at CYP125 worked out at 0 nm.
Consider `c1ccc(Cc2cccnc2)cc1` [compound 20], for which the “Δλmax (nm) CYP121, fragment screen” value on CYP121 was determined as 2 nm. Further, the “Δλmax (nm) CYP144, fragment screen” value at CYP144 is 0 nm. Also, the “Δλmax (nm) CYP142, fragment screen” value on CYP142 is given as 3 nm. The “Δλmax (nm) CYP126, fragment screen” value on CYP126 amounted to 1 nm. Also, at CYP124, the “Δλmax (nm) CYP124, fragment screen” value is listed as 1 nm. Further, the “Δλmax (nm) CYP143, fragment screen” value at CYP143 came to 2 nm. Moreover, the “Δλmax (nm) CYP125, fragment screen” value at CYP125 came to 28 nm.
On to `Oc1ccccn1` [compound 44], for which the “Δλmax (nm) CYP121, fragment screen” value at CYP121 is 0 nm. The “Δλmax (nm) CYP144, fragment screen” value at CYP144 was found to be 0 nm. Moreover, the “Δλmax (nm) CYP142, fragment screen” value at CYP142 is recorded as 0 nm. The “Δλmax (nm) CYP126, fragment screen” value on CYP126 came to 0 nm. For the same compound, the “Δλmax (nm) CYP124, fragment screen” value at CYP124 came to 0 nm. For the same compound, on CYP143, the “Δλmax (nm) CYP143, fragment screen” value is on record as -0.5 nm. The “Δλmax (nm) CYP125, fragment screen” value at CYP125 was 0 nm.
Take `N#Cc1ccccn1` [compound 40]: the “Δλmax (nm) CYP121, fragment screen” value at CYP121 is given as 0 nm. For the same compound, the “Δλmax (nm) CYP144, fragment screen” value at CYP144 was determined as 0 nm. In addition, the “Δλmax (nm) CYP142, fragment screen” value on CYP142 is 0 nm. Moreover, the “Δλmax (nm) CYP126, fragment screen” value at CYP126 was 0 nm. For the same compound, the “Δλmax (nm) CYP124, fragment screen” value at CYP124 turned out to be 0 nm. Further, the “Δλmax (nm) CYP143, fragment screen” value at CYP143 came out at 0.5 nm. Moreover, the “Δλmax (nm) CYP125, fragment screen” value at CYP125 worked out at 0 nm.
`Cc1[nH]ncc1-c1ccccc1` [compound 14]: the “Δλmax (nm) CYP121, fragment screen” value at CYP121 amounted to 0 nm. Also, the “Δλmax (nm) CYP144, fragment screen” value on CYP144 is reported as 0 nm. For the same compound, the “Δλmax (nm) CYP142, fragment screen” value at CYP142 is 1.5 nm. Moreover, the “Δλmax (nm) CYP126, fragment screen” value at CYP126 is on record as 0 nm. The “Δλmax (nm) CYP124, fragment screen” value at CYP124 came out at 3 nm. Besides, at CYP143, the “Δλmax (nm) CYP143, fragment screen” value was found to be 0 nm. Also, the “Δλmax (nm) CYP125, fragment screen” value at CYP125 was -2 nm.
Turning to `Nc1ccccn1` [compound 43], the “Δλmax (nm) CYP121, fragment screen” value at CYP121 came to 0 nm. Further, the “Δλmax (nm) CYP144, fragment screen” value on CYP144 was found to be 0 nm. The “Δλmax (nm) CYP142, fragment screen” value at CYP142 was found to be 0 nm. Further, at CYP126, the “Δλmax (nm) CYP126, fragment screen” value is 0 nm. Further, the “Δλmax (nm) CYP124, fragment screen” value on CYP124 was determined as 0 nm. Further, the “Δλmax (nm) CYP143, fragment screen” value on CYP143 is reported as 1 nm. Besides, on CYP125, the “Δλmax (nm) CYP125, fragment screen” value was determined as 0 nm.
Regarding `O=C(O)c1ccc(-n2cccn2)cc1` [compound 54], at CYP121, the “Δλmax (nm) CYP121, fragment screen” value is on record as 0 nm. For the same compound, the “Δλmax (nm) CYP144, fragment screen” value on CYP144 is 0 nm. For the same compound, the “Δλmax (nm) CYP142, fragment screen” value at CYP142 worked out at 0 nm. In addition, the “Δλmax (nm) CYP126, fragment screen” value at CYP126 is -1 nm. In addition, the “Δλmax (nm) CYP124, fragment screen” value on CYP124 turned out to be 0 nm. The “Δλmax (nm) CYP143, fragment screen” value on CYP143 is reported as -0.5 nm. Moreover, the “Δλmax (nm) CYP125, fragment screen” value on CYP125 is 0 nm.
Take `OB(O)c1ccccc1` [compound 33]: on CYP121, the “Δλmax (nm) CYP121, fragment screen” value came out at 0 nm. Moreover, on CYP144, the “Δλmax (nm) CYP144, fragment screen” value is 0 nm. Besides, the “Δλmax (nm) CYP142, fragment screen” value at CYP142 is on record as 0 nm. Further, the “Δλmax (nm) CYP126, fragment screen” value at CYP126 worked out at 0 nm. In addition, the “Δλmax (nm) CYP124, fragment screen” value on CYP124 was 0 nm. On CYP143, the “Δλmax (nm) CYP143, fragment screen” value is recorded as 4 nm. The “Δλmax (nm) CYP125, fragment screen” value on CYP125 is recorded as 0 nm.
`O=C(O)CCc1ccccc1` [compound 36]: the “Δλmax (nm) CYP121, fragment screen” value at CYP121 was found to be 0 nm. Besides, the “Δλmax (nm) CYP144, fragment screen” value on CYP144 worked out at 0 nm. Moreover, at CYP142, the “Δλmax (nm) CYP142, fragment screen” value is 0 nm. The “Δλmax (nm) CYP126, fragment screen” value on CYP126 worked out at 2 nm. In addition, the “Δλmax (nm) CYP124, fragment screen” value on CYP124 is recorded as 0 nm. In addition, the “Δλmax (nm) CYP143, fragment screen” value at CYP143 is given as 1 nm. The “Δλmax (nm) CYP125, fragment screen” value at CYP125 turned out to be 0 nm.
For `Nc1cccc(Cn2cncn2)c1` [compound 5], on CYP121, the “Δλmax (nm) CYP121, fragment screen” value came out at 2 nm. At CYP144, the “Δλmax (nm) CYP144, fragment screen” value is listed as 0 nm. For the same compound, the “Δλmax (nm) CYP142, fragment screen” value on CYP142 is listed as 1.5 nm. Further, at CYP126, the “Δλmax (nm) CYP126, fragment screen” value came to 0 nm. In addition, at CYP124, the “Δλmax (nm) CYP124, fragment screen” value is 1 nm. In addition, the “Δλmax (nm) CYP143, fragment screen” value at CYP143 was 1 nm. For the same compound, the “Δλmax (nm) CYP125, fragment screen” value at CYP125 was 0 nm.
Turning to `Clc1ncccc1Br` [compound 57], the “Δλmax (nm) CYP121, fragment screen” value on CYP121 was -1 nm. Further, the “Δλmax (nm) CYP144, fragment screen” value at CYP144 was 0 nm. In addition, the “Δλmax (nm) CYP142, fragment screen” value on CYP142 came out at 0 nm. Further, at CYP126, the “Δλmax (nm) CYP126, fragment screen” value is recorded as 0 nm. Further, the “Δλmax (nm) CYP124, fragment screen” value on CYP124 came to 0 nm. At CYP143, the “Δλmax (nm) CYP143, fragment screen” value was determined as 0.5 nm. Besides, the “Δλmax (nm) CYP125, fragment screen” value on CYP125 is reported as 0 nm.
For the compound `O=c1ccc(Br)c[nH]1` [compound 58], on CYP121, the “Δλmax (nm) CYP121, fragment screen” value turned out to be 0 nm. For the same compound, the “Δλmax (nm) CYP144, fragment screen” value at CYP144 is 0 nm. The “Δλmax (nm) CYP142, fragment screen” value on CYP142 came out at 0 nm. In addition, at CYP126, the “Δλmax (nm) CYP126, fragment screen” value is reported as -1 nm. On CYP124, the “Δλmax (nm) CYP124, fragment screen” value came to 0 nm. The “Δλmax (nm) CYP143, fragment screen” value on CYP143 is on record as 0.5 nm. For the same compound, the “Δλmax (nm) CYP125, fragment screen” value at CYP125 is recorded as 0 nm.
As to `Nc1ccc(Oc2ccccc2)nc1` [compound 48], the “Δλmax (nm) CYP121, fragment screen” value on CYP121 was determined as 1 nm. For the same compound, the “Δλmax (nm) CYP144, fragment screen” value on CYP144 is 0 nm. The “Δλmax (nm) CYP142, fragment screen” value on CYP142 amounted to 1.5 nm. For the same compound, on CYP126, the “Δλmax (nm) CYP126, fragment screen” value is reported as 2 nm. For the same compound, the “Δλmax (nm) CYP124, fragment screen” value on CYP124 is given as -1 nm. For the same compound, on CYP143, the “Δλmax (nm) CYP143, fragment screen” value is 0.5 nm. Besides, at CYP125, the “Δλmax (nm) CYP125, fragment screen” value turned out to be 0 nm.
In the case of `Cn1nc(-c2ccccc2)cc1N` [compound 11], on CYP121, the “Δλmax (nm) CYP121, fragment screen” value is 0 nm. For the same compound, the “Δλmax (nm) CYP144, fragment screen” value on CYP144 is given as 0 nm. For the same compound, the “Δλmax (nm) CYP142, fragment screen” value on CYP142 came out at 0 nm. On CYP126, the “Δλmax (nm) CYP126, fragment screen” value was determined as 0 nm. Besides, the “Δλmax (nm) CYP124, fragment screen” value at CYP124 is on record as 0 nm. In addition, the “Δλmax (nm) CYP143, fragment screen” value on CYP143 is listed as -0.5 nm. Also, on CYP125, the “Δλmax (nm) CYP125, fragment screen” value was found to be 0 nm.
Turning to `Nc1ccc(Br)cn1` [compound 23], the “Δλmax (nm) CYP121, fragment screen” value on CYP121 was -1 nm. The “Δλmax (nm) CYP144, fragment screen” value at CYP144 is 0 nm. Also, the “Δλmax (nm) CYP142, fragment screen” value on CYP142 is given as 0 nm. At CYP126, the “Δλmax (nm) CYP126, fragment screen” value worked out at 0 nm. Moreover, the “Δλmax (nm) CYP124, fragment screen” value at CYP124 stood at 0 nm. Besides, the “Δλmax (nm) CYP143, fragment screen” value at CYP143 turned out to be 0.5 nm. For the same compound, the “Δλmax (nm) CYP125, fragment screen” value at CYP125 was 0 nm.
